Legend:
[1] = molecular target: HCV replicon; assay: HCV replicon assay (luciferase); type: cell-based, Hepatitis C virus (HCV); settings: 5-2 Luc replicon cells, 24 hours with compound, luciferase emission; first symbol of Replicon/Western
Excerpt: In one embodiment, the inhibitory activity of the compounds can be confirmed in a replicon assay that assesses the ability of a test compound to block or inhibit HCV replication in replicon cells. One example of a suitable replicon assay is the liver cell-line Huh 7-based replicon assay described in Lohmann et al., 1999, Science 285:110-113. A specific example of this replicon assay which utilizes luciferase translation is provided in the Examples Section. In one embodiment of this assay, the amount of test compound that yields a 50% reduction in translation as compared to a control cell (IC50) may be determined.
The inhibitory activity of certain exemplary compounds of the invention was confirmed using an HCV replicon assay. The HCV replicon can include such features as the HCV 5′ untranslated region including the HCV IRES, the HCV 3′ untranslated region, selected HCV genes encoding HCV polypeptides, selectable markers, and a reporter gene such as luciferase, GFP, etc. In the assay, actively dividing 5-2 Luc replicon-comprising cells (obtained from Rolf Bartenschlager; see Lohmann et al., 1999, Science 285:110-113) were seeded at a density of between about 5,000 and 7,500 cells/well onto 96 well plates (about 90 μl of cells per well) and incubated at 37° C. and 5% CO2 for 24 hours. Then, the test compound (in a volume of about 10 μl) was added to the wells at various concentrations and the cells were incubated for an additional 24 hours before luciferase assay. The media was aspirated from each well and Bright-Glo (Promega, Madison, Wis.) luciferase assay reagents were added to each well according to the manufacturer's instructions. Briefly, the Bright-Glo reagent was diluted 1:1 with PBS and 100 μl of diluted reagent was added to each well. After 5 min of incubation at room temperature, luciferin emission was quantified with a luminometer. In this assay, the amount of test compound that yielded a 50% reduction in luciferase emission (IC50) was determined.

[2] = test system: HCV nonstructural protein NS5A; assay: Quantitative Western blot assay; type: cell-based, Hepatitis C virus (HCV); settings: 9-13 replicon cells, 48 hours with compound, second symbol of Replicon/Western
Method: Alternatively, the inhibitory activity of the compounds can be confirmed using a quantitative Western immunoblot assay utilizing antibodies specific for HCV non-structural proteins, such as NS3, NS4A NS5A and NS5B. In one embodiment of this assay, replicon cells are treated with varying concentrations of test compound to determine the concentration of test compound that yields a 50% reduction in the amount of a non-structural protein produced as compared to a control sample (IC50). A single non-structural protein may be quantified or multiple non-structural proteins may be quantified. Antibodies suitable for carrying out such immunoblot assays are available commercially (e.g., from BIODESIGN International, Saco, Me.).
Certain exemplary compounds of the invention were also tested for their ability to inhibit HCV replication using a quantitative Western blot analysis with antibodies specific for the HCV nonstructural protein NS5A. Actively dividing 9-13 replicon cells were seeded into 6-well plates at a density of 1×10^5 cells/well in a volume of 2 ml/well and incubated at 37° C. and 5% CO2 for 24 hours. Various concentrations of test compounds (in a volume of 10 ul) were added to the wells and the cells incubated for another 48 hours. Protein samples were prepared from the cultured cells, resolved on a SDS-PAGE gel and transferred to a nitrocellulose membrane. The membrane was blocked with 5% non-fat milk in PBS for 1 hour at room temperature. Primary antibody (anti NS5A antibody; BIODESIGN International, Saco, Me.) incubation was performed for 1 hour at room temperature, after which the membrane was washed 3 times (for 15 min per time) with PBST (PBS plus 0.1% Tween 20). Horseradish peroxidase conjugated secondary antibody incubation was performed for 1 hour at room temperature and the membrane was washed 3 times (for 15 min per time) with PBST. The membrane was then soaked in substrate solution (Pierce) and exposed to a film or quantified using an imager. In this assay, the amount of test compound that yielded a 50% reduction in the amount of NS5A protein translated as compared to a control sample (IC50) was determined.

[3] = test system: 5-2 Luc cells, 9-13 cells or Huh-7 cells; assay: Cytotoxicity assay (Cell Titer Glo); settings: read-out: IC50 cytotoxicity (number of viable cells), liver cells including an HCV replicon, 24 hr
Method: In the assay, cells were seeded onto 96-well plates (approx. 7500 cells/well in a volume of 90 μl) and grown for 24 hr at 37° C. On day 2, various concentrations of test compound (in a volume of 10 μl) were added to the wells and the cells were grown for an additional 24 hr at 37° C. On day 3, an ATP-dependent R-Luciferase assay (Cell Titer Glo assay) was performed to determine the number of viable cells.

Which results are given for “2,2-Dichloro-N-[3-[3-[2-(N-morpholino)-6-trifluoromethylphenyl)-5-isoxazolyl]phenyl] Acetamide [Compound 37]”?
IC50 [1]: ≤ 10 µM; IC50 [2]: ≤ 10 µM

With “2,2-Dichloro-N-[3-[3-[2-fluoro-(6-N-morpholinosulfamoyl)phenyl]-5-isoxazolyl]-phenyl] Acetamide [Compound 21]” as the compound, how does the IC50 [1] read?
Its IC50 is at most 10 µM.

And the IC50 [2]?
The IC50 was at most 10 µM.

How did the IC50 [1] turn out when `O=C(Nc1cc(-c2cc(-c3c(Cl)cccc3Cl)no2)ccc1F)C(Cl)Cl` [Compound 1, 2,2-Dichloro-N-[3-[3-(2,6-dichlorophenyl)-5-isoxazolyl]-6-fluorophenyl] Acetamide] was run?
Its IC50 is at most 10 µM.

And the IC50 [2]?
The IC50 was at most 10 µM.

Which IC50 [1] does the source give for `O=C(Nc1cccc(-c2cc(-c3cccc(Cl)c3Cl)no2)c1)C(Cl)Cl` [Compound 3, 2,2-Dichloro-N-[3-[3-(2,3-dichlorophenyl)-5-isoxazolyl]phenyl] Acetamide] here?
The IC50 was over 10 µM.

What about the IC50 [2] of the same compound?
Its IC50 is at most 10 µM.

How did the IC50 [1] turn out when `O=C(Nc1cccc(-c2cc(-c3c(Cl)cccc3Cl)on2)c1)C(Cl)Cl` [Compound 5, 2,2-Dichloro-N-[3-[5-(2,6-dichlorophenyl)-3-isoxazolyl]phenyl] Acetamide] was run?
The IC50 was at most 10 µM.

What about the IC50 [2] of the same compound?
The IC50 was at most 10 µM.

What does the source list for `O=C(Nc1cccc(-c2cc(-c3c(Cl)cccc3N3CCOCC3)no2)c1)C(Cl)Cl` [Compound 7, 2,2-Dichloro-N-[3-[3-[2-chloro-6-(N-morpholino)phenyl]-5-isoxazolyl]phenyl] Acetamide]?
IC50 [1]: ≤ 10 µM; IC50 [2]: ≤ 10 µM

Which IC50 [1] does the source give for `CSc1cccc(F)c1-c1cc(-c2cccc(NC(=O)C(Cl)Cl)c2)on1` [Compound 11, 2,2-Dichloro-N-[3-[3-(2-fluoro-6-thiomethylphenyl)-5-isoxazolyl]phenyl] Acetamide] here?
Its IC50 is at most 10 µM.

And the IC50 [2]?
The IC50 was at most 10 µM.

Which results are given for `O=C(Nc1ccc(F)c(-c2cc(-c3c(Cl)cccc3Cl)no2)c1)C(Cl)Cl` [Compound 13, 2,2-Dichloro-N-[3-[3-(2,6-dichlorophenyl)-5-isoxazolyl]-4-fluorophenyl] Acetamide]?
IC50 [1]: ≤ 10 µM; IC50 [2]: ≤ 10 µM

Which IC50 [1] does the source give for `Cc1ccc(F)c(-c2cc(-c3cccc(NC(=O)C(Cl)Cl)c3)on2)c1Cl` [Compound 15, 2,2-Dichloro-N-[3-[3-(2-chloro-6-fluoro-3-methylphenyl)-5-isoxazolyl]phenyl] Acetamide] here?
Its IC50 is at most 10 µM.

And the IC50 [2]?
Its IC50 is at most 10 µM.

Which IC50 [1] does the source give for `O=C(Nc1cccc(-c2cc(-c3c(F)cccc3Cl)no2)c1)C(Cl)Cl` [Compound 27, 2,2-Dichloro-N-[3-[3-(2-chloro-6-fluorophenyl)-5-isoxazolyl]phenyl] Acetamide] here?
The IC50 was at most 10 µM.

And the IC50 [2]?
Its IC50 is at most 10 µM.

How did the IC50 [1] turn out when `Cc1cc(C)c(-c2cc(-c3cccc(NC(=O)C(Cl)Cl)c3)on2)c(C)c1` [Compound 69, 2,2-Dichloro-N-[3-[3-(2,4,6-trimethylphenyl)-5-isoxazolyl]phenyl] Acetamide] was run?
The IC50 was at most 10 µM.

What about the IC50 [3] of the same compound?
The IC50 was 3 µM.

How did the IC50 [1] turn out when `O=C(Nc1cccc(-c2cc(-c3c(Cl)cc(OCCN4CCOCC4)cc3Cl)no2)c1)C(Cl)Cl` [Compound 75, 2,2-Dichloro-N-[3-[3-[2,6-dichloro-4-(N-morpholinoethyleneoxy)phenyl]-5-isoxazolyl]-phenyl] Acetamide] was run?
Its IC50 is over 10 µM.

What about the IC50 [2] of the same compound?
The IC50 was at most 10 µM.

Which IC50 [1] does the source give for `O=C(CI)Nc1cccc(-c2cc(-c3c(Cl)cccc3Cl)no2)c1` [Compound 101, 2-Iodo-N-[3-[3-(2,6-dichlorophenyl)-5-isoxazolyl]phenyl] Acetamide] here?
The IC50 was at most 10 µM.

And the IC50 [2]?
Its IC50 is over 10 µM.

With `COC(=O)c1ccc(Cl)c(-c2cc(-c3cccc(NC(=O)C(Cl)Cl)c3)on2)c1Cl` [Compound 135, 2,2-Dichloro-N-[3-[3-(3-carbomethoxy-2,6-dichlorophenyl)-5-isoxazolyl]phenyl] Acetamide] as the compound, how does the IC50 [1] read?
Its IC50 is over 10 µM.

What about the IC50 [2] of the same compound?
The IC50 was over 10 µM.

`Cc1cccc(-c2cc(-c3cccc(NC(=O)C(Cl)Cl)c3)on2)c1C` [Compound 163, 2,2-Dichloro-N-[3-[3-(2,3-dimethylphenyl)-5-isoxazolyl]phenyl] Acetamide] was tested. Which IC50 [1] did it give?
The IC50 was over 10 µM.

What about the IC50 [2] of the same compound?
Its IC50 is over 10 µM.

How did the IC50 [1] turn out when `Cc1c(NC(=O)C(Cl)Cl)cccc1-c1cc(-c2c(Cl)cccc2Cl)no1` [Compound 167, 2,2-Dichloro-N-[3-[3-(2,6-dichlorophenyl)-5-isoxazolyl]-2-methylphenyl] Acetamide] was run?
Its IC50 is over 10 µM.

With `O=C(Nc1cc(-c2cc(-c3c(Cl)cccc3Cl)no2)ccc1N1CCOCC1)C(Cl)Cl` [Compound 169] as the compound, how does the IC50 [1] read?
The IC50 was over 10 µM.

How did the IC50 [1] turn out when `O=C(Nc1cc(-c2cc(-c3c(Cl)cccc3Cl)no2)ccc1OCCN1CCOCC1)C(Cl)Cl` [Compound 171, 2,2-Dichloro-N-[3-[3-(2,6-dichlorophenyl)-5-isoxazolyl]-6-(N-morpholino-2-ethyleneoxy)phenyl] Acetamide] was run?
Its IC50 is over 10 µM.

With `COc1ccc(-c2cc(-c3c(Cl)cccc3Cl)no2)cc1NC(=O)C(Cl)Cl` [Compound 173, 2,2-Dichloro-N-[3-[3-(2,6-dichlorophenyl)-5-isoxazolyl]-6-methoxyphenyl] Acetamide] as the compound, how does the IC50 [1] read?
The IC50 was at most 10 µM.

Source: patent US6759538B2, “Substituted diphenyl heterocycles useful for treating HCV infection” (priority 2001, dated 2004)
